Source: PMC5438368, “Characterization of TRPA channels in the starfish Patiria pectinifera: involvement of thermally activated TRPA1 in thermotaxis in marine planktonic larvae” (Scientific Reports, 2017)

Columns and labels:
PpTRPA1 [1] = biological target: T1, PpTRPA1 (Patiria pectinifera, UniProt A0A1Y1C7R6); test: two-electrode voltage clamp, Xenopus laevis oocytes; type: cell-based
T1 construct: cRNA in Xenopus laevis oocytes; no tag told; PCR primers imply N-terminus MEGDE and C-terminus EHDGSNTA
T1 sequence (A0A1Y1C7R6 1-1200): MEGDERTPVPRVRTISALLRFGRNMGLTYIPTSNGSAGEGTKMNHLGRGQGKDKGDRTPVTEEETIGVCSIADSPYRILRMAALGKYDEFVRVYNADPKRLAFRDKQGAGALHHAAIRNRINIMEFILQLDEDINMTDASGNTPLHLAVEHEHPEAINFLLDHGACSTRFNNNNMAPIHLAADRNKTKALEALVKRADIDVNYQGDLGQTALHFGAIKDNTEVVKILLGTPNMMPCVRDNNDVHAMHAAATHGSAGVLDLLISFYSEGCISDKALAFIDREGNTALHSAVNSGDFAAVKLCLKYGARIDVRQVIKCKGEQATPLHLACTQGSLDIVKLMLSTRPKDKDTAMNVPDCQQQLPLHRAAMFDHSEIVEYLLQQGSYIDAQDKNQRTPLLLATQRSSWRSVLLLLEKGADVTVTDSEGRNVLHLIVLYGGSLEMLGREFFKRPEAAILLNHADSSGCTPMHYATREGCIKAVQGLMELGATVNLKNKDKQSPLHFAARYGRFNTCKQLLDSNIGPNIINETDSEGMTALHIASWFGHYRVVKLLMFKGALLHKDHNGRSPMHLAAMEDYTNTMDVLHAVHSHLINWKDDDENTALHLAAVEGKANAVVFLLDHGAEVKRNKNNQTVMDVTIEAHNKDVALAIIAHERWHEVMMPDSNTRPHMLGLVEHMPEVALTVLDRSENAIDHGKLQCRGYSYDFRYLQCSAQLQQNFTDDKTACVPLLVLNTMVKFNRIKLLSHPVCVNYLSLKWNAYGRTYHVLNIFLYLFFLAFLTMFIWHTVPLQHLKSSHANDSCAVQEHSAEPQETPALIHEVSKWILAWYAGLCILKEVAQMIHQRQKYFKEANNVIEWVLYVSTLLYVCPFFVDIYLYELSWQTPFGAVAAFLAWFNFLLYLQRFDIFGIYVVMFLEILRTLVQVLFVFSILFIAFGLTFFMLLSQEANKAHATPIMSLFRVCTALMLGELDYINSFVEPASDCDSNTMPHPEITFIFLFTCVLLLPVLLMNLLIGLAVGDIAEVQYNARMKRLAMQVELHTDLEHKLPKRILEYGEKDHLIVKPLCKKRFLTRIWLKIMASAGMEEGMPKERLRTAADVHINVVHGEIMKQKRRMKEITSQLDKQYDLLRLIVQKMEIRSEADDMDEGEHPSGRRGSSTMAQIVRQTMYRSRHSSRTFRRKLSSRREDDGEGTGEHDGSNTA

PpTRPA1 [2] = biological target: T1, PpTRPA1; test: as above; type: cell-based; conditions: agonist; ND96 bath, pH 7.4; -60 mV; n = 3; cinnamaldehyde concentration not in text

| SMILES | EC50 (PpTRPA1 [1]) [µM] | two-electrode voltage clamp, Xenopus laevis oocytes (PpTRPA1 [2]) |
| --- | --- | --- |
| C=CCN=C=S [AITC, allyl isothiocyanate] | 117 |  |
| O=CC=Cc1ccccc1 [CA, cinnamaldehyde] |  | Cinnamaldehyde (CA), another TRPA1 agonist, also evoked inward currents in X. laevis oocytes expressing PpTRPA1 |
